According to the NIST ThermoML archive (doi:10.1016/j.jct.2005.06.011):

Assays:
[1] = refractive index (Na D-line) (dimensionless); xn = mol fraction of the nth substance listed; conditions: 101 kPa, Liquid
[2] = xn = mol fraction of the nth substance listed; conditions: 101 kPa, Liquid; for speed of sound: Linear variable-path acoustic interferometer

CC1CCCCC1 [methylcyclohexane] + CC(C)CCO
x1 = 1
Conditions | mass density, 298.15 K [kg/m3] | mass density, 303.15 K [kg/m3] | mass density, 308.15 K [kg/m3] | refractive index, 298.15 K | refractive index, 303.15 K | refractive index, 308.15 K | speed of sound, 298.15 K [m/s] | viscosity, 298.15 K [mPa·s] | viscosity, 303.15 K [mPa·s] | viscosity, 308.15 K [mPa·s]
[1] | – | – | – | 1.4217 | 1.4192 | 1.4163 | – | – | – | –
[2] | 764.99 | 760.66 | 756.3 | – | – | – | 1217 | 0.6757 | 0.631 | 0.5902

CC1CCCCC1 [methylcyclohexane] + CC(C)CO
Conditions | mass density, 298.15 K [kg/m3] | mass density, 303.15 K [kg/m3] | mass density, 308.15 K [kg/m3] | refractive index, 298.15 K | refractive index, 303.15 K | refractive index, 308.15 K | speed of sound, 298.15 K [m/s] | viscosity, 298.15 K [mPa·s] | viscosity, 303.15 K [mPa·s] | viscosity, 308.15 K [mPa·s]
[1], x1 = 0.1003 | – | – | – | 1.397 | 1.3945 | 1.392 | – | – | – | –
[1], x1 = 0.2006 | – | – | – | 1.4 | 1.3975 | 1.395 | – | – | – | –
[1], x1 = 0.3008 | – | – | – | 1.4031 | 1.4005 | 1.3979 | – | – | – | –
[1], x1 = 0.4037 | – | – | – | 1.4059 | 1.4033 | 1.4007 | – | – | – | –
[1], x1 = 0.5066 | – | – | – | 1.4088 | 1.4061 | 1.4034 | – | – | – | –
[1], x1 = 0.6052 | – | – | – | 1.4114 | 1.4088 | 1.4062 | – | – | – | –
[1], x1 = 0.7038 | – | – | – | 1.4141 | 1.4115 | 1.409 | – | – | – | –
[1], x1 = 0.8025 | – | – | – | 1.4167 | 1.414 | 1.4113 | – | – | – | –
[1], x1 = 0.9011 | – | – | – | 1.4194 | 1.4165 | 1.4135 | – | – | – | –
[1], x1 = 1 | – | – | – | 1.4217 | 1.4192 | 1.4163 | – | – | – | –
[2], x1 = 0.1003 | 802.66 | 798.47 | 794.29 | – | – | – | 1175 | 2.499 | 2.17 | 1.841
[2], x1 = 0.2006 | 796.44 | 792.18 | 787.91 | – | – | – | 1179 | 2.037 | 1.79 | 1.542
[2], x1 = 0.3008 | 790.71 | 786.35 | 782.02 | – | – | – | 1183 | 1.63 | 1.44 | 1.248
[2], x1 = 0.4037 | 785.47 | 781.09 | 776.69 | – | – | – | 1188 | 1.359 | 1.209 | 1.058
[2], x1 = 0.5066 | 780.72 | 776.29 | 771.86 | – | – | – | 1193 | 1.12 | 1.017 | 0.9138
[2], x1 = 0.6052 | 776.53 | 772.08 | 767.64 | – | – | – | 1198 | 0.9911 | 0.906 | 0.821
[2], x1 = 0.7038 | 772.84 | 768.37 | 763.92 | – | – | – | 1202 | 0.8637 | 0.7964 | 0.729
[2], x1 = 0.8025 | 769.44 | 764.99 | 760.54 | – | – | – | 1207 | 0.7897 | 0.7317 | 0.6738
[2], x1 = 0.9011 | 766.63 | 762.18 | 757.75 | – | – | – | 1212 | 0.7162 | 0.6676 | 0.6189
[2], x1 = 1 | 764.99 | 760.66 | 756.3 | – | – | – | 1217 | 0.6757 | 0.631 | 0.5902

CCO [ethanol] + CC1CCCCC1
x2 = 0
Conditions | mass density, 298.15 K [kg/m3] | mass density, 303.15 K [kg/m3] | mass density, 308.15 K [kg/m3] | refractive index, 298.15 K | refractive index, 303.15 K | refractive index, 308.15 K | speed of sound, 298.15 K [m/s] | viscosity, 298.15 K [mPa·s] | viscosity, 303.15 K [mPa·s] | viscosity, 308.15 K [mPa·s]
[1] | – | – | – | 1.3608 | 1.3589 | 1.3563 | – | – | – | –
[2] | 785.66 | 781.34 | 776.99 | – | – | – | 1161 | 1.083 | 0.985 | 0.8954

CC1CCCCC1 [methylcyclohexane] + CCCO
Conditions | mass density, 298.15 K [kg/m3] | mass density, 303.15 K [kg/m3] | mass density, 308.15 K [kg/m3] | refractive index, 298.15 K | refractive index, 303.15 K | refractive index, 308.15 K | speed of sound, 298.15 K [m/s] | viscosity, 298.15 K [mPa·s] | viscosity, 303.15 K [mPa·s] | viscosity, 308.15 K [mPa·s]
[1], x1 = 0.1008 | – | – | – | 1.3888 | 1.3865 | 1.3841 | – | – | – | –
[1], x1 = 0.2027 | – | – | – | 1.3934 | 1.391 | 1.3886 | – | – | – | –
[1], x1 = 0.3047 | – | – | – | 1.3979 | 1.3955 | 1.3932 | – | – | – | –
[1], x1 = 0.4039 | – | – | – | 1.4016 | 1.3994 | 1.3971 | – | – | – | –
[1], x1 = 0.5031 | – | – | – | 1.4053 | 1.4032 | 1.4011 | – | – | – | –
[1], x1 = 0.6008 | – | – | – | 1.409 | 1.4066 | 1.4043 | – | – | – | –
[1], x1 = 0.6985 | – | – | – | 1.4127 | 1.4101 | 1.4075 | – | – | – | –
[1], x1 = 0.799 | – | – | – | 1.4159 | 1.4133 | 1.4106 | – | – | – | –
[1], x1 = 0.8995 | – | – | – | 1.4191 | 1.4164 | 1.4137 | – | – | – | –
[1], x1 = 1 | – | – | – | 1.4217 | 1.4192 | 1.4163 | – | – | – | –
[2], x1 = 0.1008 | 801.22 | 796.96 | 792.71 | – | – | – | 1207 | 1.729 | 1.536 | 1.343
[2], x1 = 0.2027 | 794.2 | 789.87 | 785.57 | – | – | – | 1208 | 1.471 | 1.317 | 1.162
[2], x1 = 0.3047 | 788.08 | 783.7 | 779.32 | – | – | – | 1209 | 1.26 | 1.136 | 1.013
[2], x1 = 0.4039 | 782.97 | 778.55 | 774.13 | – | – | – | 1210 | 1.102 | 0.9975 | 0.8926
[2], x1 = 0.5031 | 778.56 | 774.16 | 769.74 | – | – | – | 1212 | 0.9688 | 0.8863 | 0.8037
[2], x1 = 0.6008 | 774.91 | 770.45 | 765.97 | – | – | – | 1213 | 0.8839 | 0.813 | 0.742
[2], x1 = 0.6985 | 771.66 | 767.2 | 762.69 | – | – | – | 1214 | 0.7998 | 0.7403 | 0.6808
[2], x1 = 0.799 | 768.83 | 764.32 | 759.8 | – | – | – | 1215 | 0.7511 | 0.6984 | 0.6457
[2], x1 = 0.8995 | 766.39 | 761.95 | 757.5 | – | – | – | 1216 | 0.7028 | 0.6568 | 0.6107
[2], x1 = 1 | 764.99 | 760.66 | 756.3 | – | – | – | 1217 | 0.6757 | 0.631 | 0.5902

CCCCO [butan-1-ol] + CC1CCCCC1
x2 = 0
Conditions | mass density, 298.15 K [kg/m3] | mass density, 303.15 K [kg/m3] | mass density, 308.15 K [kg/m3] | refractive index, 298.15 K | refractive index, 303.15 K | refractive index, 308.15 K | speed of sound, 298.15 K [m/s] | viscosity, 298.15 K [mPa·s] | viscosity, 303.15 K [mPa·s] | viscosity, 308.15 K [mPa·s]
[1] | – | – | – | 1.3983 | 1.3959 | 1.394 | – | – | – | –
[2] | 808.49 | 804.6 | 800.67 | – | – | – | 1268 | 2.587 | 2.254 | 1.988

CC1CCCCC1 [methylcyclohexane] + CCO
Conditions | mass density, 298.15 K [kg/m3] | mass density, 303.15 K [kg/m3] | mass density, 308.15 K [kg/m3] | refractive index, 298.15 K | refractive index, 303.15 K | refractive index, 308.15 K | speed of sound, 298.15 K [m/s] | viscosity, 298.15 K [mPa·s] | viscosity, 303.15 K [mPa·s] | viscosity, 308.15 K [mPa·s]
[1], x1 = 0.1023 | – | – | – | 1.371 | 1.3686 | 1.3662 | – | – | – | –
[1], x1 = 0.2031 | – | – | – | 1.3796 | 1.3764 | 1.3744 | – | – | – | –
[1], x1 = 0.304 | – | – | – | 1.3881 | 1.3853 | 1.3825 | – | – | – | –
[1], x1 = 0.405 | – | – | – | 1.3949 | 1.3921 | 1.3893 | – | – | – | –
[1], x1 = 0.5061 | – | – | – | 1.4017 | 1.3989 | 1.3961 | – | – | – | –
[1], x1 = 0.6029 | – | – | – | 1.4068 | 1.4038 | 1.4008 | – | – | – | –
[1], x1 = 0.6998 | – | – | – | 1.412 | 1.4087 | 1.4054 | – | – | – | –
[1], x1 = 0.8016 | – | – | – | 1.417 | 1.4135 | 1.41 | – | – | – | –
[1], x1 = 0.9034 | – | – | – | 1.4192 | 1.4169 | 1.4146 | – | – | – | –
[1], x1 = 1 | – | – | – | 1.4217 | 1.4192 | 1.4163 | – | – | – | –
[2], x1 = 0.1023 | 779.57 | 775.21 | 770.8 | – | – | – | 1167 | 0.9923 | 0.9068 | 0.8212
[2], x1 = 0.2031 | 775.92 | 771.51 | 767.07 | – | – | – | 1172 | 0.9225 | 0.8458 | 0.7691
[2], x1 = 0.304 | 772.55 | 768.07 | 763.6 | – | – | – | 1178 | 0.8558 | 0.788 | 0.7202
[2], x1 = 0.405 | 770.25 | 765.74 | 761.26 | – | – | – | 1183 | 0.808 | 0.7464 | 0.6848
[2], x1 = 0.5061 | 768.4 | 763.87 | 759.36 | – | – | – | 1189 | 0.7632 | 0.7079 | 0.6525
[2], x1 = 0.6029 | 767.13 | 762.62 | 758.09 | – | – | – | 1195 | 0.7293 | 0.677 | 0.6248
[2], x1 = 0.6998 | 766.01 | 761.51 | 756.97 | – | – | – | 1200 | 0.6984 | 0.6477 | 0.5971
[2], x1 = 0.8016 | 765.34 | 760.87 | 756.37 | – | – | – | 1206 | 0.6857 | 0.6392 | 0.5927
[2], x1 = 0.9034 | 764.79 | 760.27 | 755.77 | – | – | – | 1212 | 0.6762 | 0.6323 | 0.5884
[2], x1 = 1 | 764.99 | 760.66 | 756.3 | – | – | – | 1217 | 0.6757 | 0.631 | 0.5902
